Assay results reported in patent publication US20050038113A1, “Valproic acid and derivatives for the combinatorial therapeutic treatment of human cancers and for the treatment of tumor metastasis and minimal residual disease” (G2M Cancer Drugs AG, priority 2001, published 2005).

How the values were obtained:
[1] = system: HCT-116 colon cancer cells; experiment: cell counts and propidium iodide cell cycle/apoptosis analysis; type: cell-based, human
Protocol: For FIG. 14 cells were seeded in 6 well culture dishes at 100000 cells/well. The day after, they were treated with the indicated drugs (5-FU: 2 μM 5-Fluoruracile; AD: 20 ng/ml adriamycin; IT: 3 μM irinothecan), and then cultured for further 48 hours. Cells were counted at 24 h and 48 h after treatment. All of the assays have been performed in triplicate.
For FIG. 15 cells were seeded in 6 well culture dishes at 100000 cells/well. […] (A), results of triplicate counts of viable cells. (B), cells were stained with propidium iodide after permeabilization and fixation. Results of a cell cycle analysis are presented as percentage (%) of cells in G1, S, G2+M, and sub-G1 (apoptotic cells): all of the assays have been performed in triplicate.
(A), results of triplicate counts of viable cells. (B), cells were stained with propidium iodide after permeabilization and fixation. Results of a cell cycle analysis are presented as percentage (%) of apoptotic cells: all of the assays have been performed in triplicate.
For FIG. 17 cells were seeded in 10 cm culture dishes (1 million cells/dish). […] The day after, they were treated with the following drugs: 5-FU (panel A), AD (B), or IT (C), at the concentrations as indicated for FIG. 14. Cells were analyzed at the day of treatment, 24 h, and 48 h following treatment. Upper panels, results of triplicate counts of viable cells. Lower panels, cells were stained with propidium iodide after permeabilization and fixation. Results of a cell cycle analysis are presented as percentage (%) of apoptotic cells: all of the assays have been performed in triplicate.

[2] = system: HCT-15 colon cancer cells; experiment: SRB-assay, reduction in total cellular biomass; type: cell-based, human; settings: 5-FU alone at doses lower than 0.5 μM, 48 hours
Protocol: (§1) The reduction in cellular biomass was measured by SRB-assay. For this assay cells were seeded in 96 well culture dishes at densities between 3000 and 8000 cells per well. […] Cultures were fixed with cold TCA producing a final TCA concentration of 10%. After 1 hour of incubation at 4° C. the cells were washed five times with water and air dried. Fixed cells were stained for 30 minutes with 0,4% (wt/vol) Sulforhodamine B (SRB) dissolved in 1% acetic acid and washed four times with 1% acetic acid to remove unbound dye. After air drying bound dye was solubilized with 10 mM unbuffered Tris base (pH 10,5) for 5 minutes. Optical densities were read on a Titertek Multiskan Plus spectrophotometric plate reader at 550 nm. Six test wells for each dose-response were set in parallel with 12 growth control wells per cell line. A measure of the cell population density at time 0 (To; the time at which the drug was added) was also made from 12 extra reference wells of cells fixed with TCA just prior to drug addition to the test plates. Background OD of complete medium with 5% FBS fixed and stained as described above was also determined in 12 separate wells. From the unprocessed OD data from each microtiter plate the background OD measurements (i.e. OD of complete medium plus stain and OD of cells at T0) were subtracted thus giving the reduction of cellular biomass of the cells.
This was in particular obvious when lower concentrations of 5-FU were used. E.g. […] Thus, this combinatorial activity of these two drugs must be explained via a synergistic activity of this treatment.

[3] = system: primary AML blasts from AML patients; experiment: ex vivo differentiation, viability and apoptosis of leukemic blasts; type: cell-based, human
Protocol: Each point represents the mean of a set of data determined in triplicate (Example 15). VPA may cause synergistic therapeutic responses.
Cases were classified according to the French-American-British (FAB) classification (Bennett et al., Ann Intern Med 103, 1985). Cytogenetic analysis and RT-PCR tests were performed to rule out the presence of the APL associated fusion genes according to standard methods as described (Mandelli et al., Blood 90, 1997; Mancini et al., Br J Haematol. 91, 1995; Grimwade et al., Blood 90, 1999).

[4] = system: PPARδ; settings: cited from earlier work
[5] = system: F9 cells; settings: cited from earlier work
[6] = system: PML-RAR leukemia; settings: PML-RAR patient with multiple relapses after retinoic acid and chemotherapy; cited from earlier work
[7] = system: DU-145 prostate cancer cells; experiment: SRB-assay, reduction in total cellular biomass; type: cell-based, human; settings: 48 hours
Protocol: as §1
(§2) The effect on the reduction in total cellular biomass was measured by SRB-assay (see example 1 for assay and read-out procedure details).
Results using MCF-7 estrogen-dependent breast cancer cells are presented in FIG. 18 and using DU-145 prostate cancer cells in FIG. 19. […] The effect on cell growth was measured by SRB-assay as described in example 1.

[8] = system: PC-3 prostate cancer cells; experiment: SRB-assay, reduction in total cellular biomass; type: cell-based, human; settings: 0.75 mM racemic 4-yn VPA in combination with Camptothecin, 48 hours
Protocol: as §1, with “From the unprocessed OD data from each microtiter plate the background OD measurements (i.e. OD of complete medium plus stain and OD of cells at T0) were subtracted thus giving the reduction of cellular biomass of the cells.” left out
as §2

[9] = drug alone at the concentrations used (5-FU 2 μM; AD 20 ng/ml; IT 3 μM)

**Q.** Which results are given for `O=c1[nH]cc(F)c(=O)[nH]1` [5-FU, 5-Fluorouracil]?
**A.** apoptosis [1, 9]: did not induce apoptosis significantly; growth rate [1, 9]: only moderately affected the growth rate; apoptosis ([1]; high concentrations of 5-FU alone (not shown)): efficiently induce apoptosis; apoptosis ([1]; lower doses of 5-FU alone): only a modest effect; cell number ([1]; lower doses of 5-FU alone, due to reduction in cycling cells): reduction in cell number; cellular biomass [2]: increase of the cellular biomass

**Q.** Which results are given for `CC(/C=C/C(=O)NO)=C\[C@@H](C)C(=O)c1ccc(N(C)C)cc1` [TSA]?
**A.** synergistic activities in combination (FIGS. 21 and 25) ([3]; TSA +/- RA, compared to the extent VPA does): does not display this synergistic activities; apoptosis of AML blasts (FACS, propidium-iodide) ([3]; single agent, 4 cases tested): not TSA, was found effective in inducing apoptosis; PPARδ activation [4]: activates PPARδ; F9 cell differentiation [5]: induces the same type of F9 cell differentiation as VPA

**Q.** Which clinical response [6] does the source give for phenylbutyrate here?
**A.** complete remission of the leukemia

**Q.** What does the source list for `CCc1c2c(nc3ccc(OC(=O)N4CCC(N5CCCCC5)CC4)cc13)-c1cc3c(c(=O)n1C2)COC(=O)[C@]3(O)CC` [irinothecan]?
**A.** apoptosis [1, 9]: did not induce apoptosis significantly; growth rate [1, 9]: only moderately affected the growth rate

**Q.** Which results are given for `N.N.[Cl][Pt][Cl]` [cisPlatinum]?
**A.** cellular biomass ([7]; cisPlatinum alone at concentrations lower than 10 μM): no decrease of the cellular biomass; cellular biomass ([7]; cisPlatinum alone at doses lower than 1 μM): no decrease of the cellular biomass

**Q.** For `C#CCC(CCC)C(=O)O` (racemic) [4-yn VPA, 2-n-Propyl-4-pentynoic acid], which “reduction in cellular biomass” value [8] is on record?
**A.** at least additive therapeutic effect

**Q.** What about the “reduction of cellular biomass” value ([7]; 0.75 mM racemic 4-yn VPA in combination with cis Platinum lower than 10 μM) of the same compound?
**A.** synergistic reduction of cellular biomass

**Q.** With `COc1cccc2c1C(=O)c1c(O)c3c(c(O)c1C2=O)C[C@@](O)(C(=O)CO)C[C@@H]3O[C@H]1C[C@H](N)[C@H](O)[C@H](C)O1` [adriamicine] as the compound, how does the apoptosis [1, 9] read?
**A.** did not induce apoptosis significantly

**Q.** And the growth rate [1, 9]?
**A.** only moderately affected the growth rate
